The source of these data is PubChem BioAssay (NCI).

SMILES strings stand for the structures.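 Cells were grown in 96-well plates and exposed to each compound for 48 hours at five concentrations; endpoints were interpolated linearly between bracketing concentrations, or set to the highest concentration if not reached. Abbreviation: GI50, concentration required for 50% inhibition of growth. TGI marks complete inhibition of growth.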 A value given as a limit tells only on which side of the number the result lay.

In the first assay the test system is HOP-62 NSCLC. As to the kind of experiment: DTP human tumour cell line panel, 48 h.
With `CC(=O)OCC1OC(O[C@@H]2C[C@H]3C(C)(C)[C@H](OC(C)=O)CC[C@]3(C)[C@H]3CCC4=C([C@@H](C)C[C@@H](O)[C@H](O)C(C)(C)O)CC[C@@]4(C)[C@@]32C)C(O)C(O)C1O` (stereo not given in full), the GI50 was 16.2 µM and the TGI was determined as 30 µM.
For `O=C(NNc1nc2c(F)cccc2n2cccc12)c1cnccn1`, the GI50 is 0.365 µM and the TGI worked out at 20 µM.
Take `CN=C(N)N/N=C(\c1ccccc1)c1ccc(Br)cc1`: the GI50 was 1.15 µM and the TGI was found to be 13.3 µM.
The corresponding values for `COc1cc(/C=C\[N+](=O)[O-])ccc1O` are 3.21 µM and 13.8 µM.
For `C=CC(=O)N[C@H]1C=C(C)c2c(-c3cnc4ccccc4c3)c3c(N)ncnc3n2C1`, the GI50 was 20.9 µM and the TGI was found to be 66.7 µM.
For the compound `C[C@@H]1CC[C@@H]2[C@@H]1[C@H](OC(=O)/C=C/c1ccccc1)[C@]1(c3ccccc3)C[C@@H](OC(=O)CO)[C@@]2(C)O1`, the GI50 was 16.2 µM and the TGI is 31.1 µM.
Regarding `O=C(c1ccc2ccccc2c1)c1c(C(F)(F)F)n([O-])c2cc(Cl)c(Cl)cc2[n+]1=O`, the GI50 was 1.64 µM and the TGI came to 3.03 µM.
Turning to `O=C(CSc1nc2ccc([N+](=O)[O-])cc2[nH]1)Nc1ccc(F)c(Cl)c1`, the GI50 is 2.46 µM and the TGI was determined as 9.89 µM.
`C=C1C(=O)O[C@H]2[C@H]1CC/C(CNC(=O)c1c[nH]c3ccc(F)cc13)=C\CC[C@@]1(C)O[C@@H]21`: the GI50 is 4.12 µM and the TGI was 19.7 µM.
Turning to `Cc1nn(-c2ccc(F)cc2)c2ncnc(Nc3ccc(NC(=O)Nc4ccc(Cl)c(C(F)(F)F)c4)cc3)c12`, the GI50 was 2.25 µM and the TGI came to 6.83 µM.
The matching figures for `O=C(CCN1CCN(c2cnc3ccccc3n2)CC1)c1csc2ccccc12`: 58.6 µM and greater than 100 µM.
The matching figures for `Cc1ccn2c3c(c(C(=O)O)c2c1)C(=O)c1ccccc1C3=O`: 5.93 µM and greater than 100 µM.
For the compound `COc1cc2ncn(-c3cc(OCc4ccccc4Cl)c(C(N)=O)s3)c2cc1OC`, the GI50 was 0.217 µM and the TGI came out at 7.15 µM.
For `Cc1ccc2c(C(C[N+](=O)[O-])c3cccs3)c(-c3ccccc3)[nH]c2c1` (stereo not given), the GI50 was 2.25 µM and the TGI was 11.7 µM.

The subject of the next assay is HOP-92 NSCLC. Description: DTP human tumour cell line panel, 48 h.
In the case of `CC(=O)OCC1OC(O[C@@H]2C[C@H]3C(C)(C)[C@H](OC(C)=O)CC[C@]3(C)[C@H]3CCC4=C([C@@H](C)C[C@@H](O)[C@H](O)C(C)(C)O)CC[C@@]4(C)[C@@]32C)C(O)C(O)C1O` (stereo not given in full), the GI50 was 14.6 µM and the TGI was determined as 27.9 µM.
Regarding `O=C(NNc1nc2c(F)cccc2n2cccc12)c1cnccn1`, the GI50 is 0.556 µM and the TGI was determined as 45.1 µM.
The matching figures for `CN=C(N)N/N=C(\c1ccccc1)c1ccc(Br)cc1`: 0.3 µM and 2.9 µM.
As for `COc1cc(/C=C\[N+](=O)[O-])ccc1O`, the GI50 was 1.26 µM and the TGI is 3.73 µM.
For the compound `C=CC(=O)N[C@H]1C=C(C)c2c(-c3cnc4ccccc4c3)c3c(N)ncnc3n2C1`, the GI50 is 2.46 µM and the TGI amounted to 15.7 µM.
Regarding `C[C@@H]1CC[C@@H]2[C@@H]1[C@H](OC(=O)/C=C/c1ccccc1)[C@]1(c3ccccc3)C[C@@H](OC(=O)CO)[C@@]2(C)O1`, the GI50 was 6.52 µM and the TGI turned out to be 20.1 µM.
As to `O=C(c1ccc2ccccc2c1)c1c(C(F)(F)F)n([O-])c2cc(Cl)c(Cl)cc2[n+]1=O`, the GI50 is 1.55 µM and the TGI was 3.18 µM.
Consider `O=C(CSc1nc2ccc([N+](=O)[O-])cc2[nH]1)Nc1ccc(F)c(Cl)c1`, for which the GI50 was 0.346 µM and the TGI stood at 2.72 µM.
Turning to `C=C1C(=O)O[C@H]2[C@H]1CC/C(CNC(=O)c1c[nH]c3ccc(F)cc13)=C\CC[C@@]1(C)O[C@@H]21`, the GI50 is 1.54 µM and the TGI was found to be 4.17 µM.
For `Cc1nn(-c2ccc(F)cc2)c2ncnc(Nc3ccc(NC(=O)Nc4ccc(Cl)c(C(F)(F)F)c4)cc3)c12`, the GI50 was 1.73 µM and the TGI was determined as 4.59 µM.
Regarding `O=C(CCN1CCN(c2cnc3ccccc3n2)CC1)c1csc2ccccc12`, the GI50 is 18.9 µM and the TGI came to 49.1 µM.
In the case of `Cc1ccn2c3c(c(C(=O)O)c2c1)C(=O)c1ccccc1C3=O`, the GI50 is greater than 100 µM and the TGI is greater than 100 µM.
As for `COc1cc2ncn(-c3cc(OCc4ccccc4Cl)c(C(N)=O)s3)c2cc1OC`, the GI50 is 3.8 µM and the TGI is greater than 25 µM.
As for `Cc1ccc2c(C(C[N+](=O)[O-])c3cccs3)c(-c3ccccc3)[nH]c2c1` (stereo not given), the GI50 was 4.03 µM and the TGI is 9.24 µM.

Another assay deals with NCI-H522 lung. Description: DTP human tumour cell line panel, 48 h.
Consider `CC(=O)OCC1OC(O[C@@H]2C[C@H]3C(C)(C)[C@H](OC(C)=O)CC[C@]3(C)[C@H]3CCC4=C([C@@H](C)C[C@@H](O)[C@H](O)C(C)(C)O)CC[C@@]4(C)[C@@]32C)C(O)C(O)C1O` (stereo not given in full), for which the GI50 is 13.2 µM and the TGI turned out to be 27.2 µM.
Regarding `O=C(NNc1nc2c(F)cccc2n2cccc12)c1cnccn1`, the GI50 is 0.817 µM and the TGI stood at 16.8 µM.
In the case of `CN=C(N)N/N=C(\c1ccccc1)c1ccc(Br)cc1`, the GI50 is 0.21 µM and the TGI came to 0.616 µM.
Take `COc1cc(/C=C\[N+](=O)[O-])ccc1O`: the GI50 was 1.3 µM and the TGI worked out at 3.02 µM.
As for `C=CC(=O)N[C@H]1C=C(C)c2c(-c3cnc4ccccc4c3)c3c(N)ncnc3n2C1`, the GI50 is 0.699 µM and the TGI was found to be 20.4 µM.
The corresponding values for `C[C@@H]1CC[C@@H]2[C@@H]1[C@H](OC(=O)/C=C/c1ccccc1)[C@]1(c3ccccc3)C[C@@H](OC(=O)CO)[C@@]2(C)O1` are 13.2 µM and 30 µM.
For `O=C(c1ccc2ccccc2c1)c1c(C(F)(F)F)n([O-])c2cc(Cl)c(Cl)cc2[n+]1=O`, the GI50 was 1.49 µM and the TGI was 2.81 µM.

A word on the GI50: it is the concentration at which growth is held to half of that of the control. The TGI is the concentration at which net growth stops. The low end stands for more potent growth arrest, the high end for less potent growth arrest.
